Experimental data as given in patent publication US20260250290A1 (BRISTOL-MYERS SQUIBB COMPANY, priority 2023, published 2026).
Where a name gives a salt, the structure may show the parent alone.

Target: T1, full length SGK1 (Homo sapiens, UniProt O00141)
T1 construct: 125 μM full length SGK1 (Life Technologies Part #PR7358A); purchased Life Technologies PR7358A
T1 sequence (O00141 1-431): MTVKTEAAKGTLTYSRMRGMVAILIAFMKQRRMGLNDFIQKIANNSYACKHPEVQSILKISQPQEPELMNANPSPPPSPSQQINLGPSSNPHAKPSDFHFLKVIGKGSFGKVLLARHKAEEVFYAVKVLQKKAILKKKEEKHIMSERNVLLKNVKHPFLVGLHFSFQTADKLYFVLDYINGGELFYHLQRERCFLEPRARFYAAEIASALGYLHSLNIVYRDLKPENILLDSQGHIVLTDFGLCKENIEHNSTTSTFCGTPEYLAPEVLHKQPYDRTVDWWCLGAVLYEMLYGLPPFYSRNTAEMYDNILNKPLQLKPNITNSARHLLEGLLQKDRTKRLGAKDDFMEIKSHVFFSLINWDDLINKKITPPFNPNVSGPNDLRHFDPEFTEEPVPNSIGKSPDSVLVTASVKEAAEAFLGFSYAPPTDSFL
Test: SGK1 inhibition Assay A (Caliper LabChip electrophoretic separation of fluorescent peptide substrate and phosphorylated product)
Assay type: biochemical
Details: Assay A; 20 μM ATP, 40 min incubation; read-out: SGK1 IC50

SMILES	IC50
CC1(C)CC1C(=O)N1CC=C(c2cc(N3CCC[C@@H](NC(=O)c4sc(Cl)cc4OCCN4CCOCC4)C3)c3c(N)ncnn23)C1 (stereo partly drawn) [Example 261, N-((3R)-1-(4-amino-7-(1-(2,2-dimethylcyclopropane-1-carbonyl)-2,5-dihydro-1H-pyrrol-3-yl)pyrrolo[2,1-f] [1,2,4]triazin-5-yl)piperidin-3-yl)-5-chloro-3-(2-morpholinocthoxy)thiophene-2-carboxamide]	32 nM
CC(=O)N1CC=C(c2cc(N3CCC[C@@H](NC(=O)c4sc(C(F)F)cc4C4CCN(C(C)C)CC4)C3)c3c(N)ncnn23)C1 [Example 394, (R)-N-(1-(7-(1-acetyl-2,5-dihydro-1H-pyrrol-3-yl)-4-aminopyrrolo[2,1-f][1,2,4]triazin-5-yl)piperidin-3-yl)-5-(difluoromethyl)-3-(1-isopropylpiperidin-4-yl)thiophene-2-]	249 nM
COc1cc(-c2cc(N3CCC[C@@H](NC(=O)c4ccc(Cl)s4)C3)c3c(N)ncnn23)ccc1C(N)=O [Example 207, (R)-N-(1-(4-amino-7-(4-carbamoyl-3-methoxyphenyl)pyrrolo [2,1-f][1,2,4]triazin-5-yl)piperidin-3-yl)-5-chlorothiophene-2-carboxamide]	4 nM
Cc1cc(N2CCN(C)CC2)c(C(=O)N[C@@H]2CCCN(c3cc(-c4ccnc(F)c4)n4ncnc(N)c34)C2)s1 [Example 199, (R)—N-(1-(4-amino-7-(2-fluoropyridin-4-yl)pyrrolo[2,1-f][1,2,4]triazin-5-yl)piperidin-3-yl)-5-methyl-3-(4-methylpiperazin-1-yl)thiophene-2-carboxamide, 3 TFA]	2 nM
COc1cc(C(=O)N[C@@H]2CCCN(c3cc(C4=CCN(C(C)=O)C4)n4ncnc(N)c34)C2)sn1 [Example 256, (R)—N-(1-(7-(1-acetyl-2,5-dihydro-1H-pyrrol-3-yl)-4-aminopyrrolo[2,1-f][1,2,4]triazin-5-yl)piperidin-3-yl)-3-methoxyisothiazole-5-carboxamide]	0.5 nM
COC(=O)N1CC=C(c2cc(N3CCC[C@@H](NC(=O)c4sc(Cl)cc4OCCN4CCC(F)(F)C4)C3)c3c(N)ncnn23)C1 [Example 285, Methyl (R)-3-(4-amino-5-(3-(5-chloro-3-(2-(3,3-difluoropyrrolidin-1-yl)ethoxy)thiophene-2-carboxamido)piperidin-1-yl)pyrrolo[2,1-f][1,2,4]triazin-7-yl)-2,5-dihydro-1H-pyrrole-1-carboxylate]	17 nM
N#Cc1ccc(-c2cc(N3CCC[C@@H](NC(=O)c4sc(C(F)F)cc4C4CCNC4)C3)c3c(N)ncnn23)cn1 (stereo partly drawn) [Example 400, N-((R)-1-(4-amino-7-(6-cyanopyridin-3-yl)pyrrolo[2,1-f][1,2,4]triazin-5-yl)piperidin-3-yl)-5-(difluoromethyl)-3-(pyrrolidin-3-yl)thiophene-2-carboxamide]	299 nM
COc1cscc1C(=O)N[C@@H]1CCCN(c2cc(-c3ccnc(F)c3)n3ncnc(N)c23)C1 [Example 156, (R)-N-(1-(4-amino-7-(2-fluoropyridin-4-yl)pyrrolo[2,1-f][1,2,4]triazin-5-yl)piperidin-3-yl)-4-methoxythiophene-3-carboxamide]	3 nM
CCN(CC)CCOc1cc(C(F)F)sc1C(=O)N[C@@H]1CCCN(c2cc(C3=CCN(C(C)=O)C3)n3ncnc(N)c23)C1 [Example 409, (R)-N-(1-(7-(1-acetyl-2,5-dihydro-1H-pyrrol-3-yl)-4-aminopyrrolo[2,1-f][1,2,4]triazin-5-yl)piperidin-3-yl)-3-(2-(diethylamino)ethoxy)-5-(difluoromethyl) thiophene-2-carboxamide]	24 nM
Cc1cc(-c2cc(N3CCC[C@@H](NC(=O)c4ccc(Cl)s4)C3)c3c(N)ncnn23)ccn1 [Example 132, N-[(3R)-1-[4-amino-7-(2-methylpyridin-4-yl)pyrrolo[2,1-f][1,2,4]triazin-5-yl]piperidin-3-yl)-5-chlorothiophene-2-carboxamide]	4 nM
CS(=O)(=O)c1ccc(-c2cc(N3CCC[C@@H](NC(=O)c4ccccc4F)C3)c3c(N)ncnn23)cc1 [Example 20, (R)-N-(1-(4-amino-7-(4-(methylsulfonyl)phenyl)pyrrolo[2,1-f][1,2,4]triazin-5-yl)piperidin-3-yl)-2-fluorobenzamide]	47 nM
CC(=O)N1CC=C(c2cc(N3CCC[C@@H](NC(=O)c4sc(C)nc4OC4CCNCC4)C3)c3c(N)ncnn23)C1 [Example 357E, (R)—N-(1-(7-(1-acetyl-2,5-dihydro-1H-pyrrol-3-yl)-4-aminopyrrolo[2,1-f][1,2,4]triazin-5-yl)piperidin-3-yl)-2-methyl-4-(piperidin-4-yloxy)thiazole-5-carboxamide]	19 nM
CS(=O)(=O)c1ccc(-c2cc(N3CCC[C@@H](NC(=O)c4cnn(C5CCOCC5)c4)C3)c3c(N)ncnn23)cc1 [Example 78, (R)-N-(1-(4-amino-7-(4-(methylsulfonyl)phenyl)pyrrolo[2,1-f][1,2,4]triazin-5-yl)piperidin-3-yl)-1-(tetrahydro-2H-pyran-4-yl)-1H-pyrazole-4-carboxamide]	67 nM
Nc1ncnn2c(-c3ccc(S(=O)(=O)C4CC4)cc3)cc(N3CCC[C@@H](NC(=O)c4ccc(Cl)s4)C3)c12 [Example 228, N-[(3R)-1-{4-amino-7-[4-(cyclopropanesulfonyl)phenyl]pyrrolo[2,1-f][1,2,4]triazin-5-yl}piperidin-3-yl]-5-chlorothiophene-2-carboxamide, TFA]	6 nM
Cn1cc(-c2cc(N3CCC[C@@H](NC(=O)c4ccc(Cl)s4)C3)c3c(N)ncnn23)cn1 [Example 216, (R)-N-(1-(4-amino-7-(1-methyl-1H-pyrazol-4-yl)pyrrolo[2,1-f][1,2,4]triazin-5-yl)piperidin-3-yl)-5-chlorothiophene-2-carboxamide, TFA]	26 nM

The remaining lines, values ahead:

IC50	SMILES
7 nM	CC(=O)N1CC=C(c2cc(N3CCCC(NC(=O)c4sc(Cl)cc4OC4CC5CC4CN5C)C3)c3c(N)ncnn23)C1 (single isomer, unassigned) [Example 609]
66 nM	Cc1nc(C)c(C(=O)N[C@@H]2CCCN(c3cc(-c4ccc(C#N)nc4)n4ncnc(N)c34)C2)s1 [Example 512, (R)-N-(1-(4-amino-7-(6-cyanopyridin-3-yl)pyrrolo[2,1-f][1,2,4]triazin-5-yl)piperidin-3-yl)-2.4-dimethylthiazole-5-carboxamide]
1 nM	CC(=O)N1CC=C(c2cc(N3CCC[C@@H](NC(=O)c4cccc(N5C[C@@H](C)N[C@@H](C)C5)n4)C3)c3c(N)ncnn23)C1 [Example 774, N-((R)-1-(7-(1-acetyl-2,5-dihydro-1H-pyrrol-3-yl)-4-aminopyrrolo[2,1-f][1,2,4]triazin-5-yl)piperidin-3-yl)-6-((3S,5R)-3,5-dimethylpiperazin-1-yl)picolinamide]
3 nM	CN1CCC(Oc2cc(C(F)F)sc2C(=O)N[C@@H]2CCCN(c3cc(-c4ccc(C#N)c(F)c4)n4ncnc(N)c34)C2)CC1 [Example 440, (R)-N-(1-(4-amino-7-(4-cyano-3-fluorophenyl)pyrrolo[2,1-f][1,2,4]triazin-5-yl)piperidin-3-yl)-5-(difluoromethyl)-3-((1-methylpiperidin-4-yl)oxy)thiophenc-2-carboxamide]
4 nM	Nc1ncnn2c(-c3ccnc(C(F)F)c3)cc(N3CCC[C@@H](NC(=O)c4ccc(Cl)s4)C3)c12 [Example 483, (R)-N-(1-(4-amino-7-(2-(difluoromethyl)pyridin-4-yl)pyrrolo[2,1-f][1,2,4]triazin-5-yl)piperidin-3-yl)-5-chlorothiophene-2-carboxamide]
15 nM	CC(=O)c1ncc(-c2cc(N3CCC[C@@H](NC(=O)c4cccc(N5CCN(C)CC5)n4)C3)c3c(N)ncnn23)s1 [Example 791, (R)-N-(1-(7-(2-acetylthiazol-5-yl)-4-aminopyrrolo[2,1-f][1,2,4]triazin-5-yl)piperidin-3-yl)-6-(4-methylpiperazin-1-yl)picolinamide]
4 nM	CC(=O)N1CC=C(c2cc(N3CCC[C@@H](NC(=O)c4sc(Cl)cc4OC4CC5(C4)CN(C)C5)C3)c3c(N)ncnn23)C1 [Example 581, (R)-N-(1-(7-(1-acetyl-2,5-dihydro-1H-pyrrol-3-yl)-4-aminopyrrolo[2,1-f][1,2,4]triazin-5-yl)piperidin-3-yl)-5-chloro-3-((2-methyl-2-azaspiro[3.3]heptan-6-yl)oxy)thiophene-2-carboxamide]
6 nM	N#Cc1cc(-c2cc(N3CCC[C@@H](NC(=O)c4ccc(C(F)F)s4)C3)c3c(N)ncnn23)ccn1 [Example 505, (R)-N-(1-(4-amino-7-(2-cyanopyridin-4-yl)pyrrolo[2,1-f][1,2,4]triazin-5-yl)piperidin-3-yl)-5-(difluoromethyl)thiophene-2-carboxamide]
3 nM	NC(=O)N1CC=C(c2cc(N3CCC[C@@H](NC(=O)c4ccc(Cl)s4)C3)c3c(N)ncnn23)C1 [Example 913, (R)-3-(4-amino-5-(3-(5-chlorothiophene-2-carboxamido)piperidin-1-yl)pyrrolo[2,1-f][1,2,4]triazin-7-yl)-2,5-dihydro-1H-pyrrole-1-carboxamide]
434 nM	COc1ncc(-c2cc(N3CCC[C@@H](NC(=O)c4cccc(N5CCN(C)CC5)n4)C3)c3c(N)ncnn23)cn1 [Example 788, (R)-N-(1-(4-amino-7-(2-methoxypyrimidin-5-yl)pyrrolo[2,1-f][1,2,4]triazin-5-yl)piperidin-3-yl)-6-(4-methylpiperazin-1-yl)picolinamide]
